Measurements: PMC5724930 (Biochemistry, 2017)

Columns and labels:
[1] = target: T1, PanZ (Escherichia coli, UniProt P37613); assay: ITC; also […] Å crystal structure of the PanD–PanZ·AcCoA complex; assay type: binding
T1 construct: PanZ(WT)

[2] = target: T2, PanZ (Escherichia coli, UniProt P37613, R73A); assay: ITC; assay type: binding
T2 construct: PanZ(R73A)
T2 sequence (P37613 whole entry R73A): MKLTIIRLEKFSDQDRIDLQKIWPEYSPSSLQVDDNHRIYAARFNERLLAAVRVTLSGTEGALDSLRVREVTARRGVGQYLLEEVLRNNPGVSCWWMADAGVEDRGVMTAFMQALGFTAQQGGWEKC

T1 sequence (P37613 whole entry): as the sequence (P37613 whole entry R73A) above, with A73R counted along it

Compound: CC(=O)SCCNC(=O)CCNC(=O)[C@H](O)C(C)(C)COP(=O)(O)OP(=O)(O)OC[C@H]1O[C@@H](n2cnc3c(N)ncnc32)[C@H](O)[C@@H]1OP(=O)(O)O [AcCoA]
- Kd [1]: 0.524 ± 0.064 µM
- Kd [2]: 220 ± 30 µM
